According to patent US10085983B2, “Azabicyclo derivatives, process for preparation thereof and medical use thereof” (Shanghai Haiyan Pharmaceutical Technology Co., Ltd., priority 2014, dated 2018):

Tests used:
[1] = Stability of compound CC0922; assay type: physicochemical
[2] = biological target: T790M/L858R double mutant EGFR kinase (Homo sapiens (Human), UniProt P00533, L858R/T790M); assay: z'-lyte assay of inhibitory activity on T790M/L858R double mutant EGFR kinase; assay type: biochemical; conditions: for Selective inhibitory activity against enzymes [IC50 (EGFR WT)/IC50 (T790M/L858R)]: ratio of enzyme IC50 values; for IC50: z'-lyte assay, 25 μM ATP
[3] = biological target: EGFR phosphorylation in H1975 (EGFR T790M mutant) cells (Homo sapiens (Human), UniProt P00533, L858R/T790M); assay: Inhibition of EGFR phosphorylation in H1975 cells (ELISA); assay type: cell-based; conditions: for IC50: ELISA of EGFR phosphorylation, 1 h compound treatment, read-out: H1975 cell (IC50/μM); for Selective inhibitory activity against targets at the cell level [IC50 (A431 cell)/IC50 (H1975 cell)]: ratio of ELISA IC50 values;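 on all read-outs here: Phospho-EGFR in cell lysates measured by capture-antibody ELISA with TMB substrate after compound exposure, cells given DMSO alone (0.5% final) serving as control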
Procedure: (§1) In the following methods, the reagents used, the preparation methods of solutions, the cell treatment and the preparation steps of the lysis solution, as well as the ELISA assay steps, were carried out according to the instructions of R&D DYC3570, R&D DYC1095E and R&D DYC1095BE.
(§2) Cell lysis solution: Cell lysis buffer+10 μg/mL Aprotinin (Sigma)+10 μg/mL Leupeptin (Sigma), prepared on site.
(§3) Wash buffer: PBS buffer containing 0.05% (v/v) Tween-20.
(§4) Blocking solution: PBS buffer containing 1% (w/v) BSA.
(1) H1975 cells (purchased from the Cell Bank of the Type Culture Collection Committee, Chinese Academy of Sciences) were seeded into 96-well plates at a density of 1×10^4/well, each cell containing 90 μl of RPMI1640 medium with 10% (V/V) FBS, and cultured overnight at 37° C. in 5% (v/v) CO2.
(2) The compounds to be tested were diluted in accordance with the drug dilution method in the MTT assay. 10 μL of the diluted compound or diluted DMSO was added to the corresponding wells of the cell culture plate, and the final concentration of DMSO was 0.5% (V/V). The plate was cultured at 37° C. in 5% (v/v) CO2 for 1 h. The cell culture system treated with DMSO alone was used as cell control.
(3) The medium was removed and then 100 μL of cell lysis solution was added. The plate was sealed and placed in a refrigerator at −80° C. overnight. The cell lysis buffer was used as blank control.
The assay was conducted according to the instructions given in R&D DYC1095E or R&D DYC1095BE.
(1) R&D capture antibody ((DYC1095BE or DYC1095E)) was diluted with PBS in the proportion of 1:180.
(§5) (2) The plate was washed 3 times with 360 μL of the wash buffer.
(3) 300 μL of the blocking solution was added and the plate was incubated at 25° C. with shaking for 2 hours.
(4) The plate was washed 3 times with 360 μL of the wash buffer.
(§6) (5) 40 μL of cell lysis buffer and 60 μL of cell lysis solution were added and the plate was incubated at 25° C. with shaking for 2 hours.
(§7) (6) The plate was washed 3 times with 360 μL of the wash buffer.
(§8) (7) The detection antibody was diluted with the detection antibody diluent in the proportion specified in the instructions of the kit. 100 μL of the diluted antibody was added to each well and the plate was incubated at 25° C. with shaking in dark for 1 h.
(8) The plate was washed 3 times with 360 μL of wash buffer.
(9) A reagent and B reagent in the TMB substrate (R&D DY999) were mixed in 1:1. 100 μL of the mixture was added to each well and incubated in dark at 25° C. with shaking for 20 min.
(§9) (10) 50 μL of 2N H2SO4 was added to each well.
(11) The plate was read with a microplate reader (Thermo Multiskan K3). OD 450 values and OD570 values of the cell control, blank control, and drug treatment wells were measured. ODcell, ODblank and ODdrug treatment were obtained by subtracting the corresponding OD570 value from the OD 450 value of the same well.
2.3 Data Analysis Inhibition rate (%)=100%×(ODcell−ODdrug treatment)/(ODcell−ODblank)

[4] = biological target: EGFR phosphorylation in A431 (EGFR wild-type) cells (Homo sapiens (Human), UniProt P00533); assay: Inhibition of EGFR phosphorylation in A431 cells (ELISA); assay type: cell-based; conditions: 1 h compound treatment, EGF stimulation, read-out: A431 cell (IC50/μM)
Procedure: as §1
I. Reagents and Solutions
as §2, §3, §4
3.1 A431 Cell Treatment and Testing Procedures
(1) A431 cells (purchased from the Cell Bank of the Type Culture Collection Committee, Chinese Academy of Sciences) were seeded in 96-well plates at a density of 1×10^4/well in 90 μl of DMEM medium containing 10% FBS and cultured at 37° C. in 5% CO2 overnight.
(2) The A431 cell culture medium was replaced with 90 μl of serum-free DMEM medium and the plate was cultured overnight.
(3) The compound to be tested was diluted according to the drug dilution method in MTT assay. 10 μL of the diluted compound or diluted DMSO was added to the corresponding wells of the cell culture plate, and the final concentration of DMSO was 0.5%. The plate was cultured at 37° C. in 5% CO2 for 1 hour. […] The cells without EGF and drug treatment were used as cell control, and the cells treated with EGF without drugs were used as EGF control.
(4) The medium was removed and then 100 μL of the cell lysis solution was added. The plate was sealed and placed in a refrigerator at −80° C. overnight.
The assay was conducted according to the instructions given in R&D DYC3570E.
(1) R&D capture antibody (DYC3570E) was diluted with PBS in the proportion of 1:180.
as §5
(3) 200 μL of the blocking solution was added and the plate was incubated at 25° C. with shaking for 2 hours.
(4) The plate was washed 3 times with 360 μL of wash buffer.
as §6, §7, §8
(8) The plate was washed 3 times with 360 μL of the wash buffer.
(9) A reagent and B reagent in TMB substrate (R&D DY999) were mixed in 1:1. 100 μL of the mixture was added to each well and incubated in dark at 25° C. with shaking for 20 min.
as §9
(11) The plate was read with a microplate reader (Thermo Multiskan K3). OD 450 values and OD570 values of the cell control, blank control, and drug treatment wells were measured. ODEGF, ODdrug and ODcell were obtained by subtracting the corresponding OD570 value from the OD 450 value of the same well.
3.3 Data Analysis Inhibition rate (%)=100%×(ODEGF−ODdrug)/(ODEGF−ODcell)

H1975 cells = assay: Cell growth inhibition by MTT assay, H1975 cells; assay type: cell-based; conditions: for IC50: MTT assay, 72 hours; for Selective inhibitory activity against cell growth [IC50 (A431 cell)/IC50 (H1975 cell)]: ratio of MTT IC50 values;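 on all read-outs here: MTT read-out in 96-well plates after 72 h compound exposure of H1975 and A431 cells, with selectivity given as the A431 IC50 divided by the H1975 IC50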
Procedure: (§10) The steps of the MTT assay were carried out using methods well known to those skilled in the art, and all the reagents used in the methods are commercially available.
(§11) After the first wash, another 1.5 mL of trypsin/EDTA was added to digest the adherent cells until the cells detached. Then 3.5 mL of the culture medium was added to terminate the digestion. The digested cell suspension was transferred to a 15 mL centrifuge tube and centrifuged at 1300 rpm for 3 minutes. The supernatant was discarded and the cells were resuspended in fresh medium. The cells were then counted and diluted to the following concentrations: 27,800 cells per milliliter of H1975 cells, 33,300 cells per milliliter of A431 cells and NIH3T3 cells (purchased from the Cell Bank of the Type Culture Collection Committee, Chinese Academy of Sciences).
(§12) After the drug was added, the cells were incubated in an incubator for 72 hours. 10 μL of 5 mg/ml MTT (Sigma, M5655) solution was added to each well. The 96-well plate was then incubated in a 37° C. and 5% CO2 incubator for 4 h.
(§13) The plate was then centrifuged at 2000 rpm for 5 min. After the supernatant was removed, 150 μl of DMSO was added to each well and the plate was shaken in a shaker until all crystal violet was dissolved.

A431 cells = assay: Cell growth inhibition by MTT assay, A431 cells; assay type: cell-based; conditions: 72 hours
Procedure: as §10, §11, §12, §13

wild-type EGFR kinase = wild-type EGFR kinase (Homo sapiens (Human), UniProt P00533); conditions: read-out: EGFR WT (IC50/μM); z'-lyte assay, 10 μM ATP
Procedure: All reagents used in the following z′-lyte assay were purchased from Invitrogen.
The working concentrations of each component in 10 μL wild-type EGFR kinase reaction system were: 10 μM ATP, 0.8 ng/μL wild-type EGFR kinase, 2 μM Tyr04 substrate (Invitrogen, PV3193). The concentration of DMSO after addition of the compound to be tested was 2 vol %.
10 mM drug stock solution was dissolved at room temperature and gradiently diluted to a final concentration of 4-0.002 μM with 8 vol % DMSO solution. […] Then 2.5 μl of ATP was added to initiate the reaction. Wherein, ATP was replaced by the reaction buffer in well C1, no drug was added to well C2, and the phosphorylated substrate was added to well C3 according to the instructions. The mixture was allowed to react at 25° C. in a shaker in dark for 60 min. 5 μL of Development Reagent B (Invitrogen, diluted with TR-FRET dilution buffer) was added and allowed to react at room temperature in the shaker for 60 minutes.
The inhibition rate was calculated according to the following method (refer to the instructions of Invitrogen, PV3193):
1. ER=Coumarin Emission (450 nm)/Fluorescein Emission (520 nm)
The half-inhibitory concentration IC50 was obtained through fitting calculation by using XLFIT 5.0 software (IDBS, UK).

NIH3T3 cells = assay: Toxicity test on NIH3T3 cells by MTT assay; assay type: cell-based; conditions: 72 hours
Procedure: as §10, §11, §12, §13

[5] = test system: T790M mutant cell line H1975; conditions: background statement; cited from earlier work

EGFR phosphorylation in H1975 (EGFR T790M mutant) cells, sequence (P00533 25-1210 T790M/L858R): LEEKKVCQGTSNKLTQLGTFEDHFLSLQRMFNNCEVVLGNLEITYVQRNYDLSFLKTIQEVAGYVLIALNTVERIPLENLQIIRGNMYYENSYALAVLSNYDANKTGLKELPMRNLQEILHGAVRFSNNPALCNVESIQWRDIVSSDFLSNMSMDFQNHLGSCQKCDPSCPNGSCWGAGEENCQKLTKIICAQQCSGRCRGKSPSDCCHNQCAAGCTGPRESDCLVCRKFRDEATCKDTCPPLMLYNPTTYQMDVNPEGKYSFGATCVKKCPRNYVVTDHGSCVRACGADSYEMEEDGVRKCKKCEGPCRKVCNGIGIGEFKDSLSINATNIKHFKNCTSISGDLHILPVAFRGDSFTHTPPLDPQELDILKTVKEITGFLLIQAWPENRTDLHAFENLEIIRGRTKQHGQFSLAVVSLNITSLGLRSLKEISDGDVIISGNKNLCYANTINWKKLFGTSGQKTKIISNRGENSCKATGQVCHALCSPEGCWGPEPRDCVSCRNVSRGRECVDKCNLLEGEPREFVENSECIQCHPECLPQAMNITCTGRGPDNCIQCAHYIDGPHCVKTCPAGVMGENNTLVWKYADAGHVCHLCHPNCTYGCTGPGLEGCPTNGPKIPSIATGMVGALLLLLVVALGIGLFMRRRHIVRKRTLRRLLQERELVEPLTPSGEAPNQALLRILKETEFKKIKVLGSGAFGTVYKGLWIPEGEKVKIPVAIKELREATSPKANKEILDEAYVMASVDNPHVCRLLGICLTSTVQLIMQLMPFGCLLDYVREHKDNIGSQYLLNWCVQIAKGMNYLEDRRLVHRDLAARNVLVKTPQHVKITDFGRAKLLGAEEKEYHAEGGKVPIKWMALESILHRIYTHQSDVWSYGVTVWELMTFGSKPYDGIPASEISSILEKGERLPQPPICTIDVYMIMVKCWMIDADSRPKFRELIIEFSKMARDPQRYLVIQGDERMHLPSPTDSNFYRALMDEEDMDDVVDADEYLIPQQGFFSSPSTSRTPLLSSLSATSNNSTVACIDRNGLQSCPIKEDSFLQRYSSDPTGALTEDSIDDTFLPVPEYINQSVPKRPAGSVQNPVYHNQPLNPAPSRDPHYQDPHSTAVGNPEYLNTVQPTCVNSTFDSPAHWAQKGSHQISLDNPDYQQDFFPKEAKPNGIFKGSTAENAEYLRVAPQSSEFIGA
T790M/L858R double mutant EGFR kinase, sequence (P00533 25-1210 T790M/L858R): as above
wild-type EGFR kinase, sequence (P00533 25-1210): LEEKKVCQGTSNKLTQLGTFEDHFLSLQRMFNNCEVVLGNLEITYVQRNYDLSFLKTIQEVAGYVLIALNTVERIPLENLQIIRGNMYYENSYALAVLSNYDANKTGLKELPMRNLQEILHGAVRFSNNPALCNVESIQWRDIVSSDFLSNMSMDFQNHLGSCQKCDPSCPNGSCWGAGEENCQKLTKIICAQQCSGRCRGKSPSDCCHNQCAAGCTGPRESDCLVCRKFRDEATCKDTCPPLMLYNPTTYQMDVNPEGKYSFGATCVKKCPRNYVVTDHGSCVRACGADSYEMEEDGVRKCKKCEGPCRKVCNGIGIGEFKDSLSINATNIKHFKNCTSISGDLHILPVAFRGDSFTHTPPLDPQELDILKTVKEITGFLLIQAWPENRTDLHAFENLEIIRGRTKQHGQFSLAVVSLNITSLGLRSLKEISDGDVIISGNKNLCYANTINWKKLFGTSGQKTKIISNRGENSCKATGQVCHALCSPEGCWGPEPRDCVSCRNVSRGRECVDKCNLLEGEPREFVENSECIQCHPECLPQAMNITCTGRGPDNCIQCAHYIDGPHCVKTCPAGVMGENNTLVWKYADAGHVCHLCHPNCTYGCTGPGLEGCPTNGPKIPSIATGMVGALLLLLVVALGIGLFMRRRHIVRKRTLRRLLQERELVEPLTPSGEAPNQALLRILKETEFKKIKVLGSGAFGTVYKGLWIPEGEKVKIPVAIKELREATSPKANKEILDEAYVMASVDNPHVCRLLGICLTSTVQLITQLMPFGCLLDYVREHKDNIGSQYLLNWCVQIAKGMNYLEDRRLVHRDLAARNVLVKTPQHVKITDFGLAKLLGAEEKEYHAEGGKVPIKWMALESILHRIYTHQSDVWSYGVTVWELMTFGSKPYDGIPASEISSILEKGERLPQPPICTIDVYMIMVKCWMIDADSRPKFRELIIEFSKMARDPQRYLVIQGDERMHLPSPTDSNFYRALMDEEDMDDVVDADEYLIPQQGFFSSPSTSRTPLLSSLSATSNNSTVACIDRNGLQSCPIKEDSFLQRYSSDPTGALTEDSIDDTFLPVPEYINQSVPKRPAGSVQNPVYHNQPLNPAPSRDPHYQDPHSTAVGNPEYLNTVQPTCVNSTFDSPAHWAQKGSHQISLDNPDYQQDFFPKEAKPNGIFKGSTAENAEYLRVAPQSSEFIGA
EGFR phosphorylation in A431 (EGFR wild-type) cells, sequence (P00533 25-1210): as above

Row | stability [1] | SMILES | Selective inhibitory activity against enzymes [IC50 (EGFR WT)/IC50 (T790M/L858R)] [2] | IC50 [2] | IC50 [3] | Selective inhibitory activity against targets at the cell level [IC50 (A431 cell)/IC50 (H1975 cell)] [3] | IC50 [4] | IC50 (H1975 cells) | Selective inhibitory activity against cell growth [IC50 (A431 cell)/IC50 (H1975 cell)] (H1975 cells) | IC50 (A431 cells) | IC50 (wild-type EGFR kinase) | IC50 (NIH3T3 cells) | activity in the T790M mutant cell line H1975 [5]
1 | very unstable | C=CC(=O)Nc1cccc(-c2ccc3cnc(Nc4ccc(N(C)CCN(C)C)cc4OC)nn23)c1 [CC0922] |  |  |  |  |  |  |  |  |  |  | 
2 |  | C=CC(=O)Nc1cc(Nc2ncc3ccc(-c4ccn(C)c4)n3n2)c(OC)cc1N(C)CCN(C)C [Compound J-12, N-(2-((2-(dimethylamino)ethyl)(methyl)amino)-4-methoxy-5-(7-(1-methyl-1H-pyrrol-3-yl)pyrrolo[1,2-f][1,2,4]triazin-2-ylamino)phenyl)acrylamide] | 4.2 | 0.0019 µM | 0.015 µM | 1.5 | 0.023 µM | 0.009 µM | 36.9 | 0.332 µM | 0.008 µM | 4.73 µM | 
3 |  | C=CC(=O)Nc1cc(Nc2ncc3ccc(-c4cnc5ccccc5c4)n3n2)c(OC)cc1N1CCC(N(C)C)CC1 [Compound J-13, N-(2-(4-(dimethylamino)piperidin-1-yl)-4-methoxy-5-(7-(quinolin-3-yl)pyrrolo[1,2-f][1,2,4]triazin-2-ylamino)phenyl)acrylamide] | 4.2 | 0.005 µM | 0.043 µM | 7 | 0.301 µM | 0.013 µM | 28.4 | 0.369 µM | 0.021 µM | 2.97 µM | 
4 |  | C#Cc1cccc(Nc2ncnc3cc(OCCOC)c(OCCOC)cc23)c1 [erlotinib] |  |  |  |  |  |  |  |  |  |  | greater than 3 uM
5 |  | COc1cc2ncnc(Nc3ccc(F)c(Cl)c3)c2cc1OCCCN1CCOCC1 [gefitinib] |  |  |  |  |  |  |  |  |  |  | greater than 3 uM
